The target in assay [1] is T1, TRPC5 channel (Homo sapiens, UniProt Q9UL62).
T1 construct: expressed in transfected cells; host or cells: HEK293/TREx (Invitrogen), stably transfected, induced with tetracycline
T1 sequence (Q9UL62 1-973): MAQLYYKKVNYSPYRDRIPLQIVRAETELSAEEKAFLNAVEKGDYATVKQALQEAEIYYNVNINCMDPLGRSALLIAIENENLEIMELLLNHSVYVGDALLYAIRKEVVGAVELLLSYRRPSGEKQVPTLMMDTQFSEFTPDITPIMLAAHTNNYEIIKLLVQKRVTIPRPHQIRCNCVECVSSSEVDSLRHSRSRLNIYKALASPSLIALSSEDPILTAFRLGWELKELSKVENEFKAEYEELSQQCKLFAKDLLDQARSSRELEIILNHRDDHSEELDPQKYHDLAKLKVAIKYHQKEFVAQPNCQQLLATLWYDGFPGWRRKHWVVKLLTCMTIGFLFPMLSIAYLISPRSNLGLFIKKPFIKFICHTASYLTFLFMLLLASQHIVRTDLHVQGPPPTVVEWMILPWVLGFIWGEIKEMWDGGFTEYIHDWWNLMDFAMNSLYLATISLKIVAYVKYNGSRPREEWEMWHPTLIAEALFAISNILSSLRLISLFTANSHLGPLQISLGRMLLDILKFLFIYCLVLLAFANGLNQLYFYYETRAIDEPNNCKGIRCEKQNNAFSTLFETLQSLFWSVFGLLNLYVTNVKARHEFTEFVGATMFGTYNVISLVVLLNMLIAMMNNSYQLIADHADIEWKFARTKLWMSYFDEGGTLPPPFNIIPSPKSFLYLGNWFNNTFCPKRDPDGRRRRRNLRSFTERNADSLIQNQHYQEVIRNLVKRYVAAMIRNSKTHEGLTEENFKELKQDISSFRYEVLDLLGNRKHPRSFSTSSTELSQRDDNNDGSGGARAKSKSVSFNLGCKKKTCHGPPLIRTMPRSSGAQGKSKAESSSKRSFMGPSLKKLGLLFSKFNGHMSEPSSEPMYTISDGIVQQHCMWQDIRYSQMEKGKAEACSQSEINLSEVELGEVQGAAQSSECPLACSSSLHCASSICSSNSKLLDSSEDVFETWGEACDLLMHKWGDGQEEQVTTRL
The assay can be described thus: High throughput screening assay: Fluo4 cell-based fluorescence assay of intracellular Ca2+ rise in HEK293/TREx cells inducibly expressing TRPC5. The note with it: Table 2, Ca2+ influx, 14 mM Ca2+. The source says: The assay depended on detection of the rise in intracellular Ca2+ concentration ([Ca2+]i) following channel activation in cells inducibly expressing the TRPC5 channel. Ca2+ rise was quantified with the use of fluorescent Ca2+ indicators that were loaded into cells and thereafter indicated the [Ca2+]i Ca2+ influx followed activation of the TRPC5 channel. Compounds inhibiting the [Ca2+]i rise were considered hits for further investigation.
The commercially available HEK293/TREx line (Invitrogen) was stably transfected with a TRPC5 construct and screened by conventional calcium imaging to find clones with TRPC5 expression following stimulation with 1 μg/ml tetracycline. These cells were maintained in the growth medium recommended by the manufacturer supplemented with 100 μg/ml hygromycin to promote retention of the TRPC5 construct. After growing to near confluency, cells were plated at a density of ˜35,000 cells/well in 384 well CellBind plates (Corning) in the presence of 1 μg/ml tetracycline, and allowed to grow for 20-30 hrs. A nearly confluent monolayer resulted. Cells were then loaded with Ca2+ dye: Fura-2/AM or Fluo4/AM was added to the wells to a final concentration of 4 μM or 0.5 μM, respectively, and incubated for 80 min or 60 min, respectively, at room temperature. Supernatant was then removed from the cells by inverting plates with a sharp flick, and 25 μl Hank's Balanced Salt Solution (HBSS; 0.185 g/l D-glucose, 0.9767 g/l MgS04 (anhydrous), 0.4 g/l KCl, 0.06 g/l KH2PO4 (anhydrous), 0.35 g/l NaHCO3, 8.0 g/l NaCl, and 0.04788 g/l Na2HPO4 (anhydrous); pH 7.4) was then added to each well. Following ˜0.5 hour for recovery from loading, cells were assayed using the Hamamatsu FDSS 6000 system, which permitted illumination alternately at 340 nm and 380 nm for Fura-2 experiments, or at 485 nm for Fluo4 experiments. Frames were acquired at a rate of 0.2 Hz. During the assay, the plates were continuously vortexed, with pipette mixing of wells following addition of each reagent. For the screening assay, 26 μl of a diluted compound stock (at 50 μM) was added to each well for 2 minutes following the collection of a short (4 frame) baseline. 13 μl 62 mM high-Ca2+ Ringer solution (4.17 ml of normal ringer (with 2 mM Ca2+) plus 5.83 ml of isotonic calcium ringer (105 mM Ca2+; in this ringer all sodium has been replaced with calcium)) was then added to each well, achieving a final concentration of 14 mM Ca2+ and 10 μM test compound. Data was collected for ˜3 minutes following addition of high Ca2+ Ringer, where the fluorescent intensity (for Fluo4) and the F340/F380 ratio (for Fura-2) were proportional to the [Ca2+]i Negative controls consisted of HEK293/TREx TRPC5 cells exposed to high Ca2+ solution, but no compound. Positive control conditions consisted of addition of 2-APB, a promiscuous blocker of TRPC5 and other channels, to columns 23 and 24 of the plates, to a final concentration of 200 μM. These controls defined a screening window, and “hits” were defined as those compounds inhibiting the fluorescence response by at least 40%. IC50 values were determined for compounds defined as “hits.” The Fluo4 cell-based fluorescence assay was used to determine the intracellular Ca2+ concentration in the presence of varying drug concentration. Final concentrations of compounds tested were 20 μM, 6.667 μM, 2.222 μM, 0.741 μM, 0.247 μM, 0.082 μM, and 0.027 μM. Compounds were tested in triplicate at all concentrations. Standard software was used to fit IC50 curves. […]

The target of assay [2] is T1, TRPC5 channel. Description: Whole-cell patch clamp experiments, TRPC5 current activated by LaCl3 in TRPC5-expressing HEK293 TREx cells. It is filed as cell-based. The note with it: Table 3, block of TRPC5 current in continued presence of LaCl3, IC50 estimated. The source says: Patch clamp experiments permit the detection of currents through the TRPC5 channel in the cell line described above. In normal whole-cell patch clamp recordings, a glass electrode is brought into contact with a single cell and a high-resistance (gigaohm) seal is established with the cell membrane. The membrane is then ruptured to achieve the whole-cell configuration, permitting control of the voltage of the cell membrane and measurement of currents flowing across the membrane using the amplifier attached to the electrode and resulting in the replacement of cytoplasm with the pipette solution. A perfusion system permits control of the extracellular solution, including the addition of blockers and activators of the current. The current can be activated by including 1.4 μM free Ca^2+ in the pipette (intracellular) solution, and 80 μM LaCl3 in the extracellular solution.
TRPC5 cells were induced 20-48 hours, removed from growth plates, and replated at low density (to attain good single-cell physical separation) on glass coverslips for measurement. In some cases, cells were grown in low density overnight on glass coverslips. Patch clamp recordings were made in the whole-cell mode with a holding potential of −40 mV. Every 5 seconds, a voltage ramp was applied from −120 to +100 mV, 400 ms in duration. Currents elicited were quantified at −80 mV and +80 mV. The internal solution consisted of 140 mM cesium aspartate, 10 mM HEDTA, 2 mM CaCl2, 2.27 mM MgCl2 and 10 mM HEPES, pH 7.2, with 1,400 nM calculated free Ca^2+. The external solution consisted of 150 mM NaCl, 4.5 mM KCl, 1 mM MgCl2, 2 mM CaCl2, 10 mM HEPES, 10 mM glucose, 1 mM EGTA, pH 7.4. Upon addition of LaCl3, TRPC5 current was induced only in TRPC5-expressing cells and not in parental HEK293 TREx cells. Removal of the LaCl3 stimulus causes most of the current to go away. Potential blockers were tested for ability to block both inward and outward currents in the continued presence of LaCl3.
IC50 of a compound of Formula (I) was estimated by testing the compound at 5 μM and 500 nM. […] IC50 for a compound of Formula (I) between 500 nM and 5 μM was similarly estimated.

This passage reports IC50 results from patent publication US9745272B2, “Quinazoline-2,4(1 H,3H)-dione derivatives” (Hydra Biosciences, Inc., priority 2014, dated 2017).

In turn, `COc1ccc2c(c1Cc1ccccc1)c(=O)n(CCCO)c(=O)n2C` [Compound 2] had an IC50 in assay [1] of 27 nM.
Consider `Cn1c(=O)n(CCCO)c(=O)c2c(Cc3ccccc3)c(Oc3cccc(Cl)c3)ccc21` [Compound 3, 5-benzyl-6-(3-chlorophenoxy)-3-(3-hydroxypropyl)-1-methylquinazoline-2,4(1H,3H)-dione], for which the IC50 is 395 nM in assay [1] and 2.1 nM in assay [2].
Regarding `Cn1c(=O)n(CCCO)c(=O)c2c(Cc3ccc(Cl)cc3)c(Oc3cccc(OC(F)(F)F)c3)ccc21` [Compound 4, 5-(4-chlorobenzyl)-3-(3-hydroxypropyl)-1-methyl-6-(3-(trifluoromethoxy)phenoxy)quinazoline-2,4(1H,3H)-dione], in assay [2], the IC50 was 1.52 nM.
Take `Cn1c(=O)n(CCCO)c(=O)c2c(Cc3ccc(F)cc3)c(Oc3cccc(OC(F)(F)F)c3)ccc21` [Compound 6, 5-(4-fluorobenzyl)-3-(3-hydroxypropyl)-1-methyl-6-(3-(trifluoromethoxy)phenoxy)quinazoline-2,4(1H,3H)-dione]: the figures for the half-inhibitory concentration (IC50) in assay [1] and in assay [2] were 61 nM and 1.77 nM, respectively.
The corresponding values for `CCCOc1ccc2c(c1Cc1ccc(F)cc1)c(=O)n(CCCO)c(=O)n2C` [Compound 8, 5-(4-fluorobenzyl)-3-(3-hydroxypropyl)-1-methyl-6-propoxyquinazoline-2,4(1H,3H)-dione] are 1.71 nM and 2 nM.
As for `CCCOc1ccc2c(c1Cc1ccc(Cl)cc1)c(=O)n(CCCO)c(=O)n2C` [Compound 10, 5-(4-chlorobenzyl)-3-(3-hydroxypropyl)-1-methyl-6-propoxyquinazoline-2,4(1H,3H)-dione], in assay [2], the IC50 is 4.3 nM.
Regarding `CCOc1ccc2c(c1Cc1ccc(Cl)cc1)c(=O)n(CCCO)c(=O)n2C` [Compound 11, 5-(4-chlorobenzyl)-6-ethoxy-3-(3-hydroxypropyl)-1-methylquinazoline-2,4(1H,3H)-dione], the IC50 in assay [2] was 4.2 nM.
In turn, `Cn1c(=O)n(CCCO)c(=O)c2c(Cc3ccccc3)c(-c3cccc(OC(F)(F)F)c3)ccc21` [Compound 13, 5-benzyl-3-(3-hydroxypropyl)-1-methyl-6-(3-(trifluoromethoxy)phenyl)quinazoline-2,4(1H,3H)-dione] returned an IC50 in assay [1] of 31.2 nM.

The IC50 is the concentration at which inhibition is half-maximal.
